The text below walks through data of a melting point compilation (Tetko et al.; mined from patent text by program, amines drawn as free bases though some values may be those of a salt).

The compound `CC1=C(C(=O)OCCOc2ccccc2)C(c2ccccc2OC(F)F)c2c(ccnc2OC(C)C)N1` (stereo unspecified) displayed a melting point of 122 to 124 °C.

With `CCCCCCCCCNC(=O)NCC(=O)O`, the melting point lay in the range of 144 to 145 °C.

In the case of `CC(C)CCNC(=O)c1ccccc1-c1ccccc1CN1C(=O)c2ccccc2C1=O`, the melting point was 169 °C.

Turning to `Cc1cc2c(c3c1sc1ccc(O)cc13)C(=O)N(CCN(C)C)C2=O`, the melting point was in the range of 249 to 254 °C.

In turn, `Cc1c(F)c(N2CCC(N)C2)c(C)c2c1c(=O)c(C(=O)O)cn2C1CC1` (stereo unspecified) came in with a melting point of 96 to 98 °C.

In the case of `COC(=O)c1nc(-c2ccc(Cl)c(OC)c2F)nc(N)c1OCC(F)(F)F`, the melting point lay within 123 to 125 °C.

Consider `Oc1cc(-n2cc3c(n2)CCCC3)c(Cl)cc1Cl`, for which the melting point lay within 84 to 86 °C.

`CCOC(=O)N1CCc2cc(OC)c(OC)cc2C(Oc2ccc(C(F)(F)F)cc2)C1` (stereo unspecified): the melting point lay in the range of 130 to 131 °C.

`CCOC(=O)c1c[nH]c(=S)n1C1CCc2c(F)cc(F)cc2C1` (stereo unspecified): the melting point fell in the range of 159 to 161 °C.

Compound `O=C(CCOCc1ccccc1)Nc1ccc(C(=O)Nc2ccccc2[N+](=O)[O-])cc1` displayed a melting point of 140 °C.

The compound `CCOC(=O)c1nc(NC(C)=O)sc1Cc1ccc(SC)cc1` gave a melting point of 205 to 206 °C.

Take `O=C(CCCCl)c1ccc2ccccc2c1O`: the melting point was in the range of 73 to 79 °C.

In the case of `Cc1[nH]cnc1Cn1nnnc1-c1cccc(Cl)c1Cl`, the melting point lay in the range of 151 to 153 °C.

`CC(C)C[C@H](NC(=O)O[C@H]1CCOC1)C(=O)O` yielded a melting point of 94.9 to 96 °C.

Compound `CC(=O)N(C)c1ccc2c(c1)cc(C(=O)c1ccc(C)cc1)n2C` came in with a melting point of 193 to 195 °C.

In turn, `CC1(C)SC(=S)N(Cc2ccco2)C(=O)C1NC(=O)c1ccccc1` (stereo unspecified) had a melting point of 168 to 169 °C.

Take `CCN(CCCN1c2ccccc2N(C)C(=O)c2ccc(C)nc21)C(C)C`: the melting point is 104 to 105 °C.

For `CC(C)N(C(=O)c1cccc2c1CCc1cc(C(F)(F)F)ccc1S2)C(C)C`, the melting point was determined as 122 °C.

`CCCc1nc2ccccn2c(=O)c1-c1ccc(Cl)cc1` yielded a melting point of 109 to 110 °C.

`CC(=NNC(=O)OC1CC(C)CCC1C(C)C)c1ccncc1` (stereo unspecified) gave a melting point of 188 °C.

Compound `O=C1C=CC(=O)C2=C1OCO2` registered a melting point of 106 to 107 °C.

`CSC(=Nc1c(C(C)C)cc(Oc2ccc(Cl)cc2)nc1C(C)C)NC(C)(C)C`: the melting point was 95 to 100 °C.

For `CCCOc1ccc(-c2cccc3nc(N)c4ncn(CC(C)C)c4c23)cc1`, the melting point lay in the range of 181 to 182 °C.

Regarding `O=C1[C@H](CC[C@H](O)c2ccc(F)cc2)[C@@H](c2ccc(O)c(-c3ccccc3)c2)N1c1ccc(F)cc1`, the melting point amounted to 113 °C.

`Cn1ncc(/C=C/C(=O)Nc2ccc(Cc3nccs3)cc2)c1-c1ccc(F)cc1` gave a melting point of 209 to 210 °C.

Regarding `CCN(C(=O)N1CCN(c2cc(OC)cc(OC)c2)CC1)c1cc2ccccc2nc1OC`, the melting point lay within 118 to 120 °C.

`COc1ccc(-n2nc(C#N)cc2-c2ccc(S(C)(=O)=O)cc2)cc1Cl` showed a melting point of 201 to 203 °C.

`COc1ccc(C2NCCS2)cc1` (stereo unspecified) gave a melting point of 94 to 95 °C.

`Cn1c(CCC(=O)O)ccc1C(=O)c1ccc(Cl)cc1` displayed a melting point of 188 to 191 °C.

With `COc1ccc(S(=O)(=O)N2CC(C)(C)CN(S(=O)(=O)c3ccc(OC)cc3)C2C(=O)NO)cc1`, the melting point is 125 to 126 °C.

In the case of `Cc1cc(-c2ccc(Cl)c(C)c2)nc(-c2cccc(-c3cccc(S(N)(=O)=O)c3)c2)n1`, the melting point turned out to be 201 °C.

Take `OCc1ccc2c(ccn2-c2ccnc(N[C@H]3CC[C@H](O)CC3)n2)c1`: the melting point is 232 to 234 °C.

Compound `O=C(/C=C/c1ccc(Br)cc1)c1c(F)cccc1F` showed a melting point of 71 °C.

Compound `CN(C)C(C)(CO)c1cccs1` (stereo unspecified) registered a melting point of 68 to 70 °C.

Compound `O=C1CCCN1C(=O)Oc1cccc(Cl)c1` yielded a melting point of 88 to 89 °C.

The compound `Nc1cc(C=C2c3ccccc3CCc3ccccc32)ccc1O` registered a melting point of 159 °C.
